pIC50: −log10 of the molar value. Like-named read-outs stand apart in the source and are kept apart here. Values belong to the compound of their own block, whether it stands above or below them.
Key:
[1] = test system: MDA-MB-231; assay: Morphological changes of cells by optical microscope, MDA-MB-231; assay type: cell-based, human; conditions: 72 hours; for morphological changes of cells: 0.5 µM
Protocol: (§1) After treating the MDA-MB-231 and BT549 cell lines with the 1-1 compound by concentration (0, 5, 10, and 20 µM) for 72 hours, morphological changes of cells were observed using an optical microscope, which is shown in FIG. 7C.
Subsequently, an experiment was performed as follows to confirm the targeting ability for Compounds 1-13 and 1-22. After treating the MDA-MB-231 cell line with the 1-22 and 1-13 compounds at a concentration of 0.5 µM for 72 hours, morphological changes of cells were observed using an optical microscope, and micrographs are shown in FIG. 10A. […] In addition, after treating MDA-MB-231 with the 1-22 and 1-13 compounds at a concentration of 0.5 µM for 72 hours, expression of HSP90 chaperon complexes (HSP90, HSP70, HSP27, HSF-1), HSP90 client proteins (EGFR, AKT, JAK2, STAT3), Tubulin targeting ability (Tubulin, mitosis marker p-His H3), and apoptosis-related factors (Cleaved caspase-7, Survivin, Mcl-1) proteins was confirmed using a Western blot technique, which is shown in FIG. 10B.

[2] = test system: MDA-MB-231; assay: MTS assay cell viability, MDA-MB-231; assay type: cell-based; conditions: Homo sapiens, read-out: IC50 values according to the cell viability inhibition
Protocol: MDA-MB-231 (Cell seeding numbers: 0.8(M231) x 10^4 cells/wells (confluency ≧ 25%), which is a human triple-negative breast cancer (TNBC) cell line, and JIMT-1 (Cell seeding numbers: 0.8(JIMT) x 10^4 cells/wells (confluency ≧ 25%)), which is a HER2 positive breast cancer (HER2+ BC) cell line, were used in the experiment.
The above cell lines were cultured in Dulbecco's modified Eagle's medium (DMEM) containing 10% fetal bovine serum (FBS), streptomycin-penicillin (100 U/mL), and Fungizone (0.625 µg/mL) at 5% CO2 and 37°C.
(§2) The human breast cancer cell lines MDA-MB-231 and JIMT-1 were treated with chromene-benzimidazole derivatives of Formulas 1-1 to 1-53 at various concentrations of 0, 1, and 5 µM, respectively, for 72 hours, and then cell viability was measured using the MTS assay technique. In the MTS assay, cells were attached to a 96-well plate for 24 hours, treated with the chromene-benzimidazole derivative for 72 hours, developed with MTS (3-(4,5-dimethylthiazol-2-yl)-5-(3-carboxymethoxyphenyl)-2-(4-sulfophenyl)-2H-tetrazolium) for 4 hours, and then the absorbance was measured at 490 nm using a Spectramax Plus384 microplate analyzer.
(§3) After treating the triple-negative breast cancer cell lines MDA-MB-231 and BT549 with the chromene-benzimidazole derivative Compound (1-1) by concentration (0, 0.01, 0.05, 0.1, 0.5, 1, 5, 10, 20, and 40 µM) for 72 hours, concentration-dependent cell viability (MTS assay) inhibition and IC50 values according to the cell viability inhibition were confirmed and shown in FIGS. 7A and 7B.
The […] MDA-MB-231 and […] were treated with the chromene-benzimidazole derivative compounds (1-13, 1-19, and 1-22) by concentration (0, 0.01, 0.05, 0.1, 0.25, 0.5, 1, 2, and 5 µM) for 72 hours. Detailed treatment conditions were the same as disclosed in Example 2.1. Concentration-dependent cell viability (MTS assay) inhibition and IC50 values according to the cell viability inhibition were confirmed and shown in FIG. 9.
After treating the triple-negative breast cancer cell line MDA-MB-231 with the chromene-benzimidazole derivative compounds (1-9, 1-10, 1-11, 1-15, 1-16, and 1-17) by concentration (0, 0.01, 0.05, 0.1, 0.25, 0.5, 1, 2, and 5 µM) for 72 hours, concentration-dependent cell viability (MTS assay) inhibition and IC50 values according to the cell viability inhibition were confirmed and shown in FIG. 13. […]

[3] = test system: hematologic cancer cell line HL-60; assay: MTS assay cell viability, HL-60; assay type: cell-based; conditions: 0, 0.1, 0.5, 1, 5, and 10 µM, 72 hours
Protocol: (§4) After treating a hematologic cancer cell line HL-60, a liver cancer cell line HepG2, a lung cancer cell line H1299, a colorectal cancer cell line HCT116, and an ovarian cancer cell line SKOV3 with the chromene-benzimidazole derivative compound 1-22 by concentration (0, 0.1, 0.5, 1, 5, and 10 µM) for 72 hours, concentration-dependent cell viability (MTS assay) inhibition and IC50 values according to the cell viability inhibition were confirmed and shown in FIG. 11.

[4] = test system: lung cancer cell line H1299; assay: MTS assay cell viability, H1299; assay type: cell-based; conditions: 0, 0.1, 0.5, 1, 5, and 10 µM, 72 hours
Protocol: as §4

[5] = test system: ovarian cancer cell line SKOV3; assay: MTS assay cell viability, SKOV3; assay type: cell-based; conditions: 0, 0.1, 0.5, 1, 5, and 10 µM, 72 hours
Protocol: as §4

[6] = test system: liver cancer cell line HepG2; assay: MTS assay cell viability, HepG2; assay type: cell-based; conditions: 0, 0.1, 0.5, 1, 5, and 10 µM, 72 hours
Protocol: as §4

[7] = test system: colorectal cancer cell line HCT116; assay: MTS assay cell viability, HCT116; assay type: cell-based; conditions: 0, 0.1, 0.5, 1, 5, and 10 µM, 72 hours
Protocol: as §4

[8] = test system: BT549; assay: MTS assay cell viability, BT549; assay type: cell-based; conditions: Homo sapiens, BT-549, 72 hours, read-out: IC50 values according to the cell viability inhibition
Protocol: as §2, §3

[9] = test system: BT549; assay: Annexin V/PI staining flow cytometry, BT549; assay type: cell-based
Excerpt: (§5) The degree of apoptosis of MDA-MB-231 and BT549 cells by the compound of Formula 1-1 was confirmed by a flow cytometer through Annexin V/PI staining, which is shown in FIG. 7D.

[10] = test system: MDA-MB-231; assay: Annexin V/PI staining flow cytometry, MDA-MB-231; assay type: cell-based, human
Excerpt: as §5

[11] = test system: C-terminal domain of Hsp90; assay: Hsp90 C-terminal activity by binding analysis with C recombinant protein; conditions: compared to Novobiocin
Excerpt: In order to evaluate the ability to inhibit the C-terminal domain of Hsp90, it was attempted to evaluate the ability to inhibit Hsp90 C-terminal activity through analysis of binding force between the 1-1 compound, a C-terminal Hsp90 inhibitor Novobiocin, and an N-terminal inhibitor Onalespib, and a C recombinant protein.

[12] = test system: BT549; assay: Propidium iodide DNA content flow cytometry (cell cycle), BT549; assay type: cell-based; conditions: 0, 5, 10, and 20 µM, 72 hours
[13] = test system: STAT3, c-MET, ERK, and AKT; assay: Western blot of HSP90 client proteins in MDA-MB-231; assay type: cell-based, human; conditions: 0, 5, 10, and 20 µM, 72 hours
[14] = test system: BT549; assay: Morphological changes of cells by optical microscope, BT549; assay type: cell-based; conditions: 0, 5, 10, and 20 µM, 72 hours
Protocol: as §1

[15] = test system: tubulin; assay: Western blot of tubulin and apoptosis-related proteins in MDA-MB-231; assay type: cell-based, human; conditions: 0, 5, 10, and 20 µM, 72 hours
Protocol: Subsequently, after treating the MDA-MB-231 cell line with the compound of Formula 1-1 by concentration (0, 5, 10, and 20 µM) for 72 hours, degradation of tubulin and expression of apoptosis-related proteins were confirmed by Western blot, which is shown in FIG. 8C.

[16] = MDA-MB-231 and JIMT-1 treated, cell line of the values not given, 72 hours

Structure (SMILES): COc1c(NC(=O)Nc2ccc3[nH]c(-c4ccc(C#N)cc4)nc3c2)ccc2c1C=CC(C)(C)O2 [Compound 1-13, 1-(2-(4-cyanophenyl)-1H-benzo[d]imidazol-5-yl)-3-(5-methoxy-2,2-dimethyl-2H-chromen-6-yl)urea]
morphological changes of cells [1]: Typical morphological changes of cell cycle arrest and apoptosis | pIC50 [2, 16]: 6.81 | cell viability inhibition [3]: effective cell viability inhibition | cell viability inhibition [4]: effective cell viability inhibition | cell viability inhibition [5]: effective cell viability inhibition | cell viability inhibition [6]: effective cell viability inhibition | cell viability inhibition [7]: effective cell viability inhibition

Structure (SMILES): COc1cc(-c2nc3cc(NC(=O)Nc4ccc5c(c4OC)C=CC(C)(C)O5)ccc3[nH]2)cc(OC)c1OC [Compound 1-17, 1-(5-methoxy-2,2-dimethyl-2H-chromen-6-yl)-3-(2-(3,4,5-trimethoxyphenyl)-1H-benzo[d]imidazol-5-yl)urea]
pIC50 ([2]; MDA-MB-231, 72 hours): 6.23

Structure (SMILES): COc1c(NC(=O)Nc2ccc3[nH]c(Cl)nc3c2)ccc2c1C=CC(C)(C)O2 [Compound 1-1, 1-(2-chloro-1H-benzo[d]imidazol-5-yl)-3-(5-methoxy-2,2-dimethyl-2H-chromen-6-yl)urea]
morphological changes of cells (apoptosis) ([1]; 0, 5, 10, and 20 µM): apoptosis was induced in a concentration-dependent manner | pIC50 [8]: 5.07 | degree of apoptosis [9]: early and late apoptosis were induced | pIC50 ([2]; MDA-MB-231, 72 hours): 5.25 | degree of apoptosis [10]: early and late apoptosis were induced | C-terminal HSP90 activity [11]: lowered C-terminal HSP90 activity to less than half compared to the existing Novobiocin | cell cycle (DNA content) [12]: G2/M phase cell cycle arrest | protein expression and phosphorylation of HSP90 client proteins [13]: decreases in protein expression and phosphorylation of STAT3, c-MET, ERK, and AKT | morphological changes of cells (apoptosis) [14]: apoptosis was induced in a concentration-dependent manner | degradation of tubulin / tubulin polymerization reaction [15]: could inhibit a tubulin polymerization reaction

Structure (SMILES): COc1c(NC(=O)Nc2ccc3[nH]c(-c4ccc(N(C)C)cc4)nc3c2)ccc2c1C=CC(C)(C)O2 [Compound 1-16, 1-(2-(4-(dimethylamino)phenyl)-1H-benzo[d]imidazol-5-yl)-3-(5-methoxy-2,2-dimethyl-2H-chromen-6-yl)urea]
pIC50 ([2]; MDA-MB-231, 72 hours): 6.02

The next lines start with results.

pIC50 [2, 16]: 5.97
Structure (SMILES): COc1c(NC(=O)Nc2ccc3[nH]c(-c4ccc(F)cc4F)nc3c2)ccc2c1C=CC(C)(C)O2 [Compound 1-19, 1-(2-(2,4-difluorophenyl)-1H-benzo[d]imidazol-5-yl)-3-(5-methoxy-2,2-dimethyl-2H-chromen-6-yl)urea]

pIC50 [2, 16]: 6.56
Structure (SMILES): COc1c(NC(=O)Nc2ccc3[nH]c(-c4ccc(C)cc4)nc3c2)ccc2c1C=CC(C)(C)O2 [Compound 1-22, 1-(5-methoxy-2,2-dimethyl-2H-chromen-6-yl)-3-(2-(p-tolyl)-1H-benzo[d]imidazol-5-yl)urea]
morphological changes of cells [1]: Typical morphological changes of cell cycle arrest and apoptosis | cell viability inhibition [3]: effective cell viability inhibition | cell viability inhibition [4]: effective cell viability inhibition | cell viability inhibition [5]: effective cell viability inhibition | cell viability inhibition [6]: effective cell viability inhibition | cell viability inhibition [7]: effective cell viability inhibition

pIC50 ([2]; MDA-MB-231, 72 hours): 6.47
Structure (SMILES): COc1c(NC(=O)Nc2ccc3[nH]c(-c4ccc(Cl)cc4)nc3c2)ccc2c1C=CC(C)(C)O2 [Compound 1-11, 1-(2-(4-chlorophenyl)-1H-benzo[d]imidazol-5-yl)-3-(5-methoxy-2,2-dimethyl-2H-chromen-6-yl)urea]

pIC50 ([2]; MDA-MB-231, 72 hours): 6.08
Structure (SMILES): COc1c(NC(=O)Nc2ccc3[nH]c(-c4cccc(F)c4)nc3c2)ccc2c1C=CC(C)(C)O2 [Compound 1-10, 1-(2-(3-fluorophenyl)-1H-benzo[d]imidazol-5-yl)-3-(5-methoxy-2,2-dimethyl-2H-chromen-6-yl)urea]

pIC50 ([2]; MDA-MB-231, 72 hours): 6.34
Structure (SMILES): COc1ccc(-c2nc3cc(NC(=O)Nc4ccc5c(c4OC)C=CC(C)(C)O5)ccc3[nH]2)cn1 [Compound 1-15, 1-(5-methoxy-2,2-dimethyl-2H-chromen-6-yl)-3-(2-(6-methoxypyridin-3-yl)-1H-benzo[d]imidazol-5-yl)urea]

pIC50 ([2]; MDA-MB-231, 72 hours): 6.56
Structure (SMILES): COc1c(NC(=O)Nc2ccc3[nH]c(-c4ccc(F)cc4)nc3c2)ccc2c1C=CC(C)(C)O2 [Compound 1-9, 1-(2-(4-fluorophenyl)-1H-benzo[d]imidazol-5-yl)-3-(5-methoxy-2,2-dimethyl-2H-chromen-6-yl)urea]
